The target of experiment [1] is T1, CFTR channel (Homo sapiens, UniProt P13569, DEL508-508).
T1 construct: having recorded the I/V in cells treated with tamoxifen for 24 hours; endogenous in cells; host or cells: CFBE (F508del/F508del) or IB3-1 (F508del/W1282X) cells
In words: patch clamp chloride currents in tamoxifen-treated cells with CFTR inhibitor. Format: cell-based. The following applies: cells treated with tamoxifen 5 μM for 24 hours, then tamoxifen + CFTR inh (FIG. 3). Here is the method: (§1) The chloride currents through the Ca-dependent chloride channels were measured using the patch clamp technique in perforated whole-cell configuration. The whole-cell configuration was obtained not by breaking the membrane below the electrode, but thanks to the action of an ionophore (gramicidin, 10 μg/ml) which, forming pores through the membrane, guarantees electrical continuity between the solution for the electrode and the cytoplasm, while maintaining the cellular integrity. Thus, cytoplasmic components that might be important to the maintenance of channel activity are not removed after dialysis of the cytoplasm with the solution contained in the electrode. […]
The solution for the electrode contained (mM): 145 KCl, 1 MgCl2, 10 HEPES, pH 7,25. […] The bath solution was hypertonic (measured osmolarity 337 mOsm) with respect to that of the electrode to inhibit the currents activated by swelling, present in the cells used also in isosmolarity conditions of the bath solution (as noted in previously carried out whole-cell experiments).
Finally, in order to evaluate a possible action of tamoxifen on the CFTR channel, having recorded the I/V in cells treated with tamoxifen for 24 hours, the replacement of the solution with one containing tamoxifen and CFTR inh (specific inhibitor of CFTR) (FIG. 3) was carried out.
Background: In patch-clamp work, channel activity is measured electrically.

Experiment [2] relates to Ca-dependent chloride channels. Put plainly: patch clamp, perforated whole-cell configuration, chloride currents in CF bronchial epithelial cells. It counts as cell-based. On the procedure: Our experiments were carried out on homozygous CFBE cells leading the F508del/F508 del mutation and on IB3-1 cells (immortalized cell line of bronchial epithelium cystic fibrosis cells, which bring F508del/W1282X mutation).
as §1
The solution for the electrode contained (mM): 145 KCl, 1 MgCl2, 10 HEPES, pH 7,25. […] The bath solution was hypertonic (measured osmolarity 337 mOsm) with respect to that of the electrode to inhibit the currents activated by swelling, present in the cells used also in isosmolarity conditions of the bath solution (as noted in previously carried out whole-cell experiments). […]

T1 sequence (P13569 with tags, fused parts or gaps DEL508-508): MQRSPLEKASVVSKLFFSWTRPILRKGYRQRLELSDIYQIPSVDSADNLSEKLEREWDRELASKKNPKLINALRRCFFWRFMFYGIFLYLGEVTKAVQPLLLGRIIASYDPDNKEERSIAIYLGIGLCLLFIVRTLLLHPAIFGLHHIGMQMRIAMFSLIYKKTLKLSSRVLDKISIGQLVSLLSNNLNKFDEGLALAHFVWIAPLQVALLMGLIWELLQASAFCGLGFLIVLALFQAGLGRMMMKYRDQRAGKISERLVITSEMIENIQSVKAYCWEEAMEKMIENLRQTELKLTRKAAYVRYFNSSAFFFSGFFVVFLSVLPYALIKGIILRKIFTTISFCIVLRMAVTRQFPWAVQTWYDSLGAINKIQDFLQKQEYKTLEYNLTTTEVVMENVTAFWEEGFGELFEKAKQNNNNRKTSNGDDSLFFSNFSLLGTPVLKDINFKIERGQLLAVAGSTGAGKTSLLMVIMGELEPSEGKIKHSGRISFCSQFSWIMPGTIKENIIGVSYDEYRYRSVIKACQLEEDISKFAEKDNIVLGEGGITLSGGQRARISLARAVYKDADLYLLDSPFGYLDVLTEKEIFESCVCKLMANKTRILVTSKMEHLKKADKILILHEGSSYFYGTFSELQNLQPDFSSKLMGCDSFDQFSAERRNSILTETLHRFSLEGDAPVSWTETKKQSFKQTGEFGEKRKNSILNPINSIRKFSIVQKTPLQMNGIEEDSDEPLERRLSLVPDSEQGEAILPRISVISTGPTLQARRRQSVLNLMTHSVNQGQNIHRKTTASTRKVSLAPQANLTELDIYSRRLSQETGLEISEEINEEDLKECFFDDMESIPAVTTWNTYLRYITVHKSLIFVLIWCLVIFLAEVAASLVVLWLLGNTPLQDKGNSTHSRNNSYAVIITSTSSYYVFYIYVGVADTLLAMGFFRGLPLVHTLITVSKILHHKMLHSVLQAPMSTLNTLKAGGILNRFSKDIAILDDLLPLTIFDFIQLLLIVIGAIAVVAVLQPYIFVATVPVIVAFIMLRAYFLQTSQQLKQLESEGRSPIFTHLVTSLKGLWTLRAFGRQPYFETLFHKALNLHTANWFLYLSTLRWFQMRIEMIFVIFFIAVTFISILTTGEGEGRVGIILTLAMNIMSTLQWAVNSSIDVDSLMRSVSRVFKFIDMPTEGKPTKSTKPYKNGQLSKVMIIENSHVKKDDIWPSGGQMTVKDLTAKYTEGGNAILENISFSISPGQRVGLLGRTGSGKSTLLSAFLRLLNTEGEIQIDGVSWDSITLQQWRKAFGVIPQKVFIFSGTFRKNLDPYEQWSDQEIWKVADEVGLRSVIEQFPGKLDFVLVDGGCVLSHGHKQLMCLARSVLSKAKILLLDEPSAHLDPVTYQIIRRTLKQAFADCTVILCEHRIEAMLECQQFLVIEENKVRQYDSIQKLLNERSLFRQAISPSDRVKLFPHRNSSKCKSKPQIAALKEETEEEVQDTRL

With `CC/C(=C(\c1ccccc1)c1ccc(OCCN(C)C)cc1)c1ccccc1` [tamoxifen], in experiment [1], the “effect on chloride currents in the presence of the inhibitor of CFTR” value is on record as “does not change significantly”. The “current density compared to control conditions” value in experiment [2] (CFBE or IB3-1 cells incubated 40 minutes with tamoxifen 5 μM (FIG. 1)) is listed as “significantly increased”. The “effect on Ca-dependent chloride currents over time” value in experiment [2] (cells incubated with 5 μM tamoxifen for 24 hours (FIG. 2)) is recorded as “remains almost unchanged over time”.

The values above are taken from US11191738B2, “Use of tamoxifen for the treatment of cystic fibrosis in patients of both sexes” (GB PHARMA S.R.L., priority 2016, dated 2021).
